Test results from ChEMBL document CHEMBL1201862, “PubChem BioAssay data set” (2004).
Values belong to the compound of their own block, whether it stands above or below them. The source made the active and inactive calls.

Experiments:
[1] = viability of PTEN-deleted HCT116 cells – cell-based, HCT116 PTEN knockout, dose response (AID 1047); type: functional;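 note: HCT116 colon tumor cells with PTEN knocked out; cells exposed to compound for 60 hours before readout; potency for loss of cell viability measured by luminescence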
[2] = molecular target: T1, Cytochrome P450 1A2 (Homo sapiens, UniProt P05177);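 note: PubChem cytochrome P450 panel assay, CYP1A2 panel member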
T1 sequence (P05177 whole entry): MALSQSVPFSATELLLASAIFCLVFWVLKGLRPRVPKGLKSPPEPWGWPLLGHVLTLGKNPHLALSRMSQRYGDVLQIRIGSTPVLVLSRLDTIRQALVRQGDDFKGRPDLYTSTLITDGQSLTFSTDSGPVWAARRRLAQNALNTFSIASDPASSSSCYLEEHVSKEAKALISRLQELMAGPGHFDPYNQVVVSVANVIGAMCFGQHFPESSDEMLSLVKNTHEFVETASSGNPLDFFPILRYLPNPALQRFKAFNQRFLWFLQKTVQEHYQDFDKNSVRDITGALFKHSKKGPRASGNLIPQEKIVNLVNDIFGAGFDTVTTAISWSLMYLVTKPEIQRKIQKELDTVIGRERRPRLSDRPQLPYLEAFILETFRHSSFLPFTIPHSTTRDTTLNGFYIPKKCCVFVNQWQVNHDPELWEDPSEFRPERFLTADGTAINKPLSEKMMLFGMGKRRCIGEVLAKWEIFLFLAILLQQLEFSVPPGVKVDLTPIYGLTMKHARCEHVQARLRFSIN

[3] = molecular target: Cytochrome P450 2D6 (Homo sapiens, UniProt P10635);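 note: CYP2D6 member of a cytochrome P450 panel assay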
Chain of Cytochrome P450 2D6 (P10635 whole entry): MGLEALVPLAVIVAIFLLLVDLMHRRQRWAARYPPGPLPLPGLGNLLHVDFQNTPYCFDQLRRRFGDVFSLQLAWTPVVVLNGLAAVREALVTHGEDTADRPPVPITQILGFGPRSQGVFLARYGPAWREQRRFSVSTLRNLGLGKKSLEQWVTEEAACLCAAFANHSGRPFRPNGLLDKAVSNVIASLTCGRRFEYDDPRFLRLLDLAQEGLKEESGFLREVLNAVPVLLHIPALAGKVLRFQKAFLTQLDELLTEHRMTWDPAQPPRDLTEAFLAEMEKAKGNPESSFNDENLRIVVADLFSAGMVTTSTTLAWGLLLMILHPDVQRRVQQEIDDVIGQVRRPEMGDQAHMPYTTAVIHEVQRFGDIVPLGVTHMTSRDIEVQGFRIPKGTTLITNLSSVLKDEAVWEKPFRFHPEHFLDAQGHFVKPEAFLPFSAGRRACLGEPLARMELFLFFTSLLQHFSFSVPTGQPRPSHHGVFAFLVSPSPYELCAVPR

[4] = viability of HCT116 lacking mutant beta-catenin – cell-based, human colon tumor, dose response (AID 1045); type: functional;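 note: HCT116 colon tumor cells with beta catenin knocked out; cells exposed to compound for 60 hours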
[5] = molecular target: T2, Short transient receptor potential channel 4 (Mus musculus, UniProt Q9QUQ5); experiment: block of DAMGO-driven TRPC4 calcium entry – cell-based, HEK293 TRPC4/mu-opioid, Fluo-4 calcium, dose response (AID 434942); type: functional;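 note: potency of inhibitors blocking the TRPC4 calcium response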
T2 sequence (Q9QUQ5 whole entry): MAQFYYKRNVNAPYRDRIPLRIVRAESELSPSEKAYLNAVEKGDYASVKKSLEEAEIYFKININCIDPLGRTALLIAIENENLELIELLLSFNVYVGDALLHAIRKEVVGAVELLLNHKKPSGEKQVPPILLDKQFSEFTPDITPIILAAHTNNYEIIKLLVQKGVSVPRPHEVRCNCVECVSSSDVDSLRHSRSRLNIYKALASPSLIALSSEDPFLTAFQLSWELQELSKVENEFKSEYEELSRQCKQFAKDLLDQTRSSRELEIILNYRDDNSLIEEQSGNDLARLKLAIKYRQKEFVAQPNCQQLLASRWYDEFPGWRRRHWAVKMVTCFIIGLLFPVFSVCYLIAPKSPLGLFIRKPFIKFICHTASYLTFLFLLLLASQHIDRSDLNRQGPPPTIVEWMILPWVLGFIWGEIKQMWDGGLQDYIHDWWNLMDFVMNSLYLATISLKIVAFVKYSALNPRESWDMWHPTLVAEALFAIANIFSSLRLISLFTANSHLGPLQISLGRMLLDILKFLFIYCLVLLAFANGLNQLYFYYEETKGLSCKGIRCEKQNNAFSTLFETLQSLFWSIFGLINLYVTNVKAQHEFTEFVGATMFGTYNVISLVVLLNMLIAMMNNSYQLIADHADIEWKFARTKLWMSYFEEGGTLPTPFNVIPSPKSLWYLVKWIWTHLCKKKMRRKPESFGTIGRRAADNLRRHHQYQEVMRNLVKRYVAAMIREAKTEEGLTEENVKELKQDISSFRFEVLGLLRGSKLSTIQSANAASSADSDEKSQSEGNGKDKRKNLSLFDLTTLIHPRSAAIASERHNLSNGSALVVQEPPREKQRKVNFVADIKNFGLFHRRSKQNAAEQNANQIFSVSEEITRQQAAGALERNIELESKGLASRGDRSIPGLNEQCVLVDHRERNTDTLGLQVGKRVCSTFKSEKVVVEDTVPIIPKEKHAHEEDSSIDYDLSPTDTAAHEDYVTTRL

[6] = molecular target: T3, Leucine aminopeptidase (Plasmodium falciparum 3D7, UniProt Q8IL11); experiment: P. falciparum M17LAP inhibitors, primary screen, biochemical, fluorogenic H-Leu-NHMec substrate, 1536-well (AID 1619); type: functional
T3 sequence (Q8IL11 whole entry): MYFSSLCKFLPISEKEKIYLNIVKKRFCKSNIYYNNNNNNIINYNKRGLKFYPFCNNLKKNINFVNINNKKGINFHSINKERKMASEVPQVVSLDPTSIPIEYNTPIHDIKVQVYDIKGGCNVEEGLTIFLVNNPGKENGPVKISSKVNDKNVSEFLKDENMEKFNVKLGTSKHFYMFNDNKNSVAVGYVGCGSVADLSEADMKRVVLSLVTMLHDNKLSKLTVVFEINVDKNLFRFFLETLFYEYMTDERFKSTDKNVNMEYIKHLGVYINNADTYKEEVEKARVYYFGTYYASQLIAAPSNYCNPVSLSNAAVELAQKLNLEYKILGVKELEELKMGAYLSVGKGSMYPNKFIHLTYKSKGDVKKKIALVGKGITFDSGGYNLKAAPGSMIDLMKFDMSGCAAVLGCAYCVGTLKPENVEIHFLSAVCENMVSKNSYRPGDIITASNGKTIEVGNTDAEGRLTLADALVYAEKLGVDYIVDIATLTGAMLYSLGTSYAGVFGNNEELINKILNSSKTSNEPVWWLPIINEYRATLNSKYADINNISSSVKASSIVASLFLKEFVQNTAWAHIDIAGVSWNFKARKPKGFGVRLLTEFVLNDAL

[7] = molecular target: T4, Polyadenylate-binding protein 1 (Homo sapiens, UniProt P11940); experiment: MLLE domain peptide-binding blockers, IC50 – biochemical, fluorescence polarization, FITC-PAM2 peptide, dose response (AID 602259); type: functional; conditions: read-out: IC50_Mean
T4 sequence (P11940 whole entry, the tested form may be a part): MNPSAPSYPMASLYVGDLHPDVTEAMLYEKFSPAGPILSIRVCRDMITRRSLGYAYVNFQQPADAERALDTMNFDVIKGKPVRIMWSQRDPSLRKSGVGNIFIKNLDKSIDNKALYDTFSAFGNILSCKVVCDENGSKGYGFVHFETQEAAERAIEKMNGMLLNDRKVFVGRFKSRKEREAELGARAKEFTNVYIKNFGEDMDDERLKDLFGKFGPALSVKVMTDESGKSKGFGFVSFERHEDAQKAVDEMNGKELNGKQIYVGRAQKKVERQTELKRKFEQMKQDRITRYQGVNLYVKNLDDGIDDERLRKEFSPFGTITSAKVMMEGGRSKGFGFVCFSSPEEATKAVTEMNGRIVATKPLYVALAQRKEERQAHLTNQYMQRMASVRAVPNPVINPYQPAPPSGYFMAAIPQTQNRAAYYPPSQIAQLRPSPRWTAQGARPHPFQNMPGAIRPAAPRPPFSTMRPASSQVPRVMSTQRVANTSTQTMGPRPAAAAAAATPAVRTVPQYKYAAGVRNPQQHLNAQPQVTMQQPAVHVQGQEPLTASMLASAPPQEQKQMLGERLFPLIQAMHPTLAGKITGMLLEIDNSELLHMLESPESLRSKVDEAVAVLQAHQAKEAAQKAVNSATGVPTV

[8] = molecular target: T4, Polyadenylate-binding protein 1; experiment: MLLE binding blockers, Cy5 peptide tracer – biochemical, fluorescence polarization, Cy5-PAM2 peptide, secondary, miRNA deadenylation inhibitor project, dose response (AID 602260); type: functional; conditions: read-out: IC50_Mean
[9] = molecular target: T5, Estrogen receptor (Homo sapiens, UniProt P03372);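 note: potency for inhibiting coactivator peptide recruitment to the receptor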
T5 sequence (P03372 whole entry): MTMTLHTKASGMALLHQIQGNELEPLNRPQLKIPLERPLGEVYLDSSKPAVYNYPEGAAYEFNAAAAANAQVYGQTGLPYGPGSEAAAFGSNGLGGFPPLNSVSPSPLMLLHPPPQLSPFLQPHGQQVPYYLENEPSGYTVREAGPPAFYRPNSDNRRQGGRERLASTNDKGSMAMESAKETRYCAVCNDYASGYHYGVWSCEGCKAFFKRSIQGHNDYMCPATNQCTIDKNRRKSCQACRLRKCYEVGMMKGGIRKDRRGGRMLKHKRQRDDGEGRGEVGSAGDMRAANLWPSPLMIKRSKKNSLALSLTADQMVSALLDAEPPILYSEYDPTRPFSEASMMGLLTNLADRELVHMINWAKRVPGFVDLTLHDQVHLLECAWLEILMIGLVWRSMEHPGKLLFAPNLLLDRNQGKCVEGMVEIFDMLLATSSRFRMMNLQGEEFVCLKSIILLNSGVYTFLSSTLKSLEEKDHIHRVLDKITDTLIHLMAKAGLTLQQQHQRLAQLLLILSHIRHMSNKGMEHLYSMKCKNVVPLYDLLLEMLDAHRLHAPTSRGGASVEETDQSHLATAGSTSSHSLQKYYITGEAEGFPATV

[10] = molecular target: T6, Zinc finger protein mex-5 (Caenorhabditis elegans, UniProt Q9XUB2); experiment: potency of MEX-5 RNA-binding blockers – biochemical, C. elegans, fluorescence polarization, dose response (AID 1960)
T6 sequence (Q9XUB2 whole entry): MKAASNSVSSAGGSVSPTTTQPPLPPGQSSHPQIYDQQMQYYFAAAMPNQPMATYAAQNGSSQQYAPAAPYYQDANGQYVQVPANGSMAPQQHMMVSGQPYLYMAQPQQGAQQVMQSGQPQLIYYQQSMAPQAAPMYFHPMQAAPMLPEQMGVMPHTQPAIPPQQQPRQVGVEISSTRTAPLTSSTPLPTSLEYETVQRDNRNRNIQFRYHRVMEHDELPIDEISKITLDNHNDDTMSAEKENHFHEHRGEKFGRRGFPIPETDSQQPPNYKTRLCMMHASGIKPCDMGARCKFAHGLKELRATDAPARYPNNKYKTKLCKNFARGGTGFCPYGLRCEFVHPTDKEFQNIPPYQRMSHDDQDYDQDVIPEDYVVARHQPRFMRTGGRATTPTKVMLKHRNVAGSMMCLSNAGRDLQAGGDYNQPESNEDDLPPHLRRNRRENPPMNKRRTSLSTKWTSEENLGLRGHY

[11] = molecular target: T7, RNA-binding protein pos-1 (Caenorhabditis elegans, UniProt G5EF15); experiment: disruptors of C. elegans POS-1 RNA interaction – biochemical, fluorescence polarization, dose response (AID 1964);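 note: purified POS-1 fused to maltose binding protein made in E. coli; potency of compounds blocking POS-1 binding to fluorescent RNA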
T7 sequence (G5EF15 whole entry): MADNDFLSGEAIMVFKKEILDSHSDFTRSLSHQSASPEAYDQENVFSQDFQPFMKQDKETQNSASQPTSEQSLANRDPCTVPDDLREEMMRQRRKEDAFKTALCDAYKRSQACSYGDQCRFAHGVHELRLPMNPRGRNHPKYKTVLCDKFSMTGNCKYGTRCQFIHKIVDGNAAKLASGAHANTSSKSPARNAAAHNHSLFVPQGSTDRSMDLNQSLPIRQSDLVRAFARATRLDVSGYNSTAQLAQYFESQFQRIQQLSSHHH

[12] = HIV-1 AD8 envelope cell-cell fusion blockers – cherry-pick, dose response (AID 652062); type: functional, cell-based;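 note: luciferase signal from cell-cell fusion driven by HIV-1 clade B AD8 Env; potency is for inhibitors of fusion seen as a drop in luminescence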
[13] = blockers of HIV-1 ZM109 envelope-driven cell-cell fusion – HeLa effector, CEM target cells, luciferase, cherry-pick, dose response (AID 652058); type: functional, cell-based;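 note: luciferase signal from HIV-1 Env mediated cell-cell fusion of effector and target cells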
[14] = blockers of HIV-1 envelope-mediated cell-cell fusion – cherry-pick, dose response (AID 652057); type: functional, cell-based
[15] = molecular target: Paired box protein Pax-8 (Homo sapiens, UniProt Q06710); experiment: PAX8 transcriptional activity inhibition in RMG-I – RMG-I cells, luciferase, cherry-pick, dose response (AID 687027); type: functional, cell-based;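 note: luciferase reporter driven by Pax8 target thyroperoxidase promoter measured by SteadyGlo luminescence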
Chain of Paired box protein Pax-8 (Q06710 whole entry): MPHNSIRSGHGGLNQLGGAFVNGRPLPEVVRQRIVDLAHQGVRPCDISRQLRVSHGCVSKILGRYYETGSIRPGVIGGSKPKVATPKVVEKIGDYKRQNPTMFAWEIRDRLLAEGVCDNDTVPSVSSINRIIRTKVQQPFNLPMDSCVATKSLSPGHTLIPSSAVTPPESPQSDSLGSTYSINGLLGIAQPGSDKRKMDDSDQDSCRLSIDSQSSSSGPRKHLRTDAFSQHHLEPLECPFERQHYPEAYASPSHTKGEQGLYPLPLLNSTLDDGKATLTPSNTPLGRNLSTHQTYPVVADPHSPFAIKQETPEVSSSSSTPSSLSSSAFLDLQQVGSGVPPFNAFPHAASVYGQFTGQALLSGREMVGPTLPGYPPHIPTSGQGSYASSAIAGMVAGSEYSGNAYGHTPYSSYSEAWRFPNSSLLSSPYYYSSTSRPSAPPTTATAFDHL

EC50 [5]: 0.944 µM (active)
SMILES: COc1cccc(C(CNC(=O)C(c2ccccc2)c2ccccc2)N(C)C)c1 (stereo unspecified)

IC50 [7]: > 66 µM (inactive) | IC50 [8]: > 66 µM (inactive) | IC50 [9]: 23.4 µM (active)
SMILES: O=C(O)c1cc(-c2ccco2)nc2ccccc12

EC50 [10]: 2.85 µM (active) | IC50 [9]: > 50 µM (not active) | EC50 [11]: 2.13 µM (active)
SMILES: Cc1ccc(NC(=O)c2sc3nc4c(c(-c5ccco5)c3c2N)CCC4)cc1

IC50 [6]: 28.7 µM (active)
SMILES: Cc1ccc(/C=c2/sc3nnc(-c4ccccc4Cl)n3c2=O)o1

More lines, now with the values behind:

SMILES: CCOC(=O)c1ccc(NC(=NS(=O)(=O)c2ccccc2C)c2ccccc2)cc1
EC50 [1]: 36.4 µM (active) | AC50 [2]: 25.1 µM (inconclusive) | AC50 [3]: 17.8 µM (inconclusive) | EC50 [4]: 56.2 µM (active)

SMILES: c1ccc(-c2ccccc2OCCOCCN2CCCCC2)cc1
EC50 [5]: 2.11 µM (active)

SMILES: CCc1c(O)nc(SCC(=O)Nc2ccc3c(c2)CCC3)nc1O
IC50 [6]: 8.08 µM (active)

SMILES: Cc1ccc(S(=O)(=O)Cc2ccc(C(=O)NCc3ccc4c(c3)OCO4)o2)cc1
IC50 [9]: 37.5 µM (not active)

SMILES: COc1ccc(C(=O)NCCc2ccc(Cl)cc2)cc1S(=O)(=O)N1CCCCC1C (stereo unspecified)
AC50 [12]: 11.4 µM (active) | AC50 [13]: 67.5 µM (active) | AC50 [14]: 21.7 µM (active)

SMILES: COc1ccc(S(=O)(=O)Nc2ccc3c(c2)CC(=O)N([C@H](C)CO)C[C@H](C)[C@H](CN(C)S(=O)(=O)c2cccs2)O3)cc1
AC50 [12]: 3.88 µM (active) | AC50 [14]: 0.509 µM (active)

SMILES: C[C@H](CO)N1C[C@H](C)[C@H](CN(C)Cc2ccc(Cl)c(Cl)c2)Oc2c(NS(=O)(=O)c3ccc(Cl)cc3)cccc2C1=O
AC50 [15]: 13.7 µM (active) | AC50 [12]: 42.9 µM (active) | AC50 [13]: 20.1 µM (active) | AC50 [14]: 26.9 µM (active)

SMILES: CC(=O)/C(=N\Nc1ccc(Cl)cc1Cl)Sc1nnc(-c2ccccc2)n1-c1ccccc1
EC50 [1]: 9.61 µM (active) | EC50 [4]: 8.46 µM (active)
